Laboratory results taken from patent publication US7452913B2, “Polymorphs of pyrrole substituted 2-indolinone protein kinase inhibitors” (Pharmacia & Upjohn Company, priority 2003, dated 2008).
Converted amounts (≈) assume the structure as drawn. Read-outs that look alike come from different tables or passages of the source. Marks after values point to notes of the source that are not given here.

Experiments:
Type in all cases: physicochemical
pKa = experiment: pKa
[1] = Estimation of the solubility of a polymorph in various solvents; details: thermodynamic from solid
Procedure: Estimation of the Solubility of a Polymorph in Various Solvents.
Approximately 1.5 mg of the polymorph, was transferred to 10 mL glass vials (tared) and was weighed (accurate to 0.1 mg). Solvents were added to the vials (one solvent each vial) in a step-wise fashion. After each addition, the vial was capped and shaken. The dissolution of solid was visually observed. If no obvious dissolution was observed, more solvent was added immediately. If dissolution was apparent, the vial was left on the bench for at least 30 minutes before the next addition of solvent. This step was repeated until no crystals were visible against a black and a white background. The solubility was then bracketed by dividing the weight by the final volume and the volume before the last addition. If a solid remained after the addition of 10 mL solvent, the solubility was expressed as less than the weight divided by the final volume. If the solid was completely dissolved after the first addition of solvent, the solubility was expressed as greater than the weight divided by the solvent volume. The solubility values were expressed as mg/mL. All experiments were conducted at room temperature.
The estimated solubilities of 5-[5-fluoro-2-oxo-1,2-dihydroindol-(3Z)-ylidenmethyl]-2,4-dimethyl-1H-pyrrole-3-carboxylic acid (2-pyrrolidin-1-ylethyl)-amide in various solvents are presented in Table A. The experiments were carried out using polymorph I at room temperature. The solubilities may be divided into three groups.

[2] = Equilibrium solution pH of non-buffered aqueous medium after adding the compound; details: for Equilibrium solution pH: non-buffered aqueous medium, ambient temperature
Procedure: Determination of the pH—Solubility Profile of Polymorphs.
About 3 mL aqueous solutions of various concentrations of either HCl or NaOH, providing a pH from 1-13, were transferred to a 10 ml glass vial. A sufficient amount of the polymorph was added. The vials were wrapped with aluminum foil and manually shaken. They were allowed to sit in the fume hood overnight prior to any further treatment.
As expected, the equilibrium solubility of this compound is higher at lower solution pH (Table A). However, the dissolution of a particle in a dissolution medium depends on the pH in the diffusion layer. The pH value of the diffusion layer in intimate contact with the solid (pHh=0) may be obtained from equilibrium pH of the solution, measured by a pH meter. Results are presented in Table B. When the initial pH is higher than 10, the solubility of 5-[5-fluoro-2-oxo-1,2-dihydroindol-(3Z)-ylidenmethyl]-2,4-dimethyl-1 H-pyrrole-3-carboxylic acid (2-pyrrolidin-1-ylethyl)-amide is very low. Therefore, the pH of the solution at equilibrium is almost not changed. On the other hand, if the initial pH<10, more 5-[5-fluoro-2-oxo-1,2-dihydroindol-(3Z)-ylidenmethyl]-2,4-dimethyl-1H-pyrrole-3-carboxylic acid (2-pyrrolidin-1-ylethyl)-amide goes into solution and the equilibrium solution pH is higher than the initial pH (Table B).

[3] = Slurry conversion (suspension crystallization), resulting solid identified by PXRD; details: room temperature; for Resulting solid by PXRD: stirred 2 weeks
Procedure: To determine the relative thermodynamic stability relationship between two polymorphs, a slurry conversion experiment was also studied at room temperature using PXRD.
Polymorph I, 20 mg, was suspended in various solvents alone with trace amount of polymorph II seeding crystals in 10 mL glass vials. The suspensions were stirred by magnetic stirring bars for 2 weeks before the solids were filtered and analyzed by PXRD. […] Because the solubility in THF is higher than that in acetone (Table A), low solubility is not the reason for the slow conversion kinetics.

[4] = Rotating disc intrinsic dissolution rate (IDR) determination; details: for Color change of pellet side exposed to dissolution medium (solid-state conversion): 0.05M KCl, pH 2 buffer, original pellet yellow; for IDR (n = 3): pH = 2 buffer (0.01 N HCl and 0.05 M KCl) at 23° C.
Procedure: Rotating Disc Intrinsic Dissolution Rate (IDR) Determination. The IDR was measured using a fiber optic UV automated dissolution system. The dissolution process was monitored in some instances continuously at 426.2 nm using the fiber optic probe with 10 data points taken per minute. To prepare the compressed disc for the experiment, the powders were compressed in a stainless steel (SS) die, (1¼″ dia×1″, ID 3/16″) using a high speed steel (HSS) punch (diameter 3/16″ and length 3½″). The HSS punch was inserted into the die to a distance of about ¾″, leaving about ¼″ for placement of about 10 mg of the drug into the die cavity. A SS base plate (diameter ¼″) was placed to cover the cavity. The entire assembly was then secured by a 2-bolt holder. A Carver press was used to compress the powder at to ˜1,000 lbs (˜37,000 psi) for 3 minutes. The die and holder was removed from the Carver press and the punch was pulled back a little to allow the pellet to relax/expand. The die was then tightly attached on the HSS punch by a set-screw. The entire punch and die assembly containing the drug pellet with one face of the drug pellet exposed was removed as a unit from the holder and was attached to an electric motor. The die was rotated at 300 rpm and was lowered into the dissolution medium 3 min after the initiation of the data collection program. The dissolution medium was degassed and was contained in a 500 mL water jacketed beaker (Pyrex, No.1000). The data collect during the first 3 min provided a baseline value for each dissolution experiment. The dissolution medium consisted of pH=2 solution (0.01 N HCl and 0.05 M KCl). The die was positioned such that the drug compact was about 2.5″ from the bottom of the 500 mL dissolution vessel and about the same distance from the liquid surface. The intrinsic dissolution profile was plotted using Microsoft Excel and the intrinsic dissolution rate was calculated automatically by the program according to equation (1). The volume of dissolution medium was 300 mL. The surface area of the pellet exposed to dissolution medium was 0.177 cm^2. The time period for a dissolution run was usually 15 min but was varied as needed.

[5] = Suspension of polymorphs in pH 2 dissolution medium (HCl salt formation test); details: for Color change of suspended particles: at least 15 minutes after suspension; for Appearance of suspension: one day after preparation
Description: To further test the HCl salt formation hypothesis. Both polymorph I and II were suspended in the above dissolution medium. […] It is also possible that compaction prior to the IDR experiment modify the crystals of polymorph I and render it the ability of rapid conversion. The XRD pattern of polymorph I pellets compressed at various pressures show some degree of amorphous content, which may be connected to its rapid salt formation during the IDR experiment.

SMILES: Cc1[nH]c(/C=C2\C(=O)Nc3ccc(F)cc32)c(C)c1C(=O)NCCN1CCCC1 [5-[5-fluoro-2-oxo-1,2-dihydroindol-(3Z)-ylidenmethyl]-2,4-dimethyl-1H-pyrrole-3-carboxylic acid (2-pyrrolidin-1-ylethyl)-amide]
- pKa (pKa): 8.5
- solubility ([1]; DMF and pH<=2 water (one solvent per vial), organic solvent or mixture, DMSO, DMF and pH<=2 water, polymorph I, room temperature, read-out: Solubility (Group III solvents)): > 1000 µg/mL
- solubility ([1]; dioxane and THF (one solvent per vial), organic solvent or mixture, methanol, ethanol, dioxane and THF, polymorph I, room temperature, read-out: Solubility (Group II solvents)): 100 to 400 µg/mL (≈ 252 to 1010 µM)
- solubility ([1]; organic solvent or mixture, isopropyl alcohol, CH2Cl2, ethyl acetate, acetonitrile, acetone, chloroform, toluene, hexane and pH>6 water, polymorph I, room temperature, read-out: Solubility (Group I solvents)): < 300 µg/mL
- pH of the diffusion layer in contact with the solid (pHh=0) ([2]; bulk dissolution medium pH as low as 1.4): > 5
- Solubility at initial pH higher than 10 ([2]; initial pH higher than 10, aqueous): very low
- Equilibrium solution pH ([2]; initial solution pH 1.43): 5.36
- Equilibrium solution pH ([2]; initial solution pH 2.19): 5.20
- Equilibrium solution pH ([2]; initial solution pH 3.22): 6.98
- Equilibrium solution pH ([2]; initial solution pH 5.47): 8.13
- Equilibrium solution pH ([2]; initial solution pH 6.73): 8.31
- Equilibrium solution pH ([2]; initial solution pH 7.24): 8.49
- Equilibrium solution pH ([2]; initial solution pH 7.61): 8.87
- Equilibrium solution pH ([2]; initial solution pH 10.07): 9.86
- Equilibrium solution pH ([2]; initial solution pH 11.53): 11.61
- Equilibrium solution pH ([2]; initial solution pH 12.50): 12.52
- Equilibrium solution pH ([2]; initial solution pH 13.20): 13.18

SMILES: Cc1[nH]c(/C=C2\C(=O)Nc3ccc(F)cc32)c(C)c1C(=O)NCCN1CCCC1 [polymorph I, 5-[5-fluoro-2-oxo-1,2-dihydroindol-(3Z)-ylidenmethyl]-2,4-dimethyl-1H-pyrrole-3-carboxylic acid (2-pyrrolidin-1-ylethyl)-amide]
- Resulting solid by PXRD ([3]; Acetone suspension): converts to polymorph II
- Resulting solid by PXRD ([3]; Methanol suspension): converts to polymorph II
- Resulting solid by PXRD ([3]; THF suspension): appears stable
- Color change of pellet side exposed to dissolution medium (solid-state conversion) [4]: orange-red
- IDR (n = 3) [4]: 1.08 ± 0.09^c mg/min/cm^2
- Color change of suspended particles [5]: no change of color
- Appearance of suspension [5]: orange-red needle-shaped crystals
- solubility ([1]; aqueous buffer, Water (pH = 2), 23° C., read-out: Solubility): 3110 µg/mL (≈ 7840 µM)
- solubility ([1]; aqueous buffer, Water (pH = 6), 23° C., read-out: Solubility): 5 µg/mL (≈ 12.6 µM)
- solubility ([1]; organic solvent or mixture, Acetone, 23° C., read-out: Solubility): < 160 µg/mL
- solubility ([1]; organic solvent or mixture, Acetonitrile, 23° C., read-out: Solubility): < 80 µg/mL
- solubility ([1]; organic solvent or mixture, CH2Cl2, 23° C., read-out: Solubility): < 120 µg/mL
- solubility ([1]; organic solvent or mixture, Chloroform, 23° C., read-out: Solubility): < 110 µg/mL
- solubility ([1]; organic solvent or mixture, DMF, 23° C., read-out: Solubility): > 1500 µg/mL
- solubility ([1]; organic solvent or mixture, DMSO, 23° C., read-out: Solubility): 1500 to 3000 µg/mL (≈ 3780 to 7570 µM)
- solubility ([1]; organic solvent or mixture, Dioxane, 23° C., read-out: Solubility): 180 to 200 µg/mL (≈ 454 to 504 µM)
- solubility ([1]; organic solvent or mixture, Ethyl acetate, 23° C., read-out: Solubility): < 280 µg/mL
- solubility ([1]; organic solvent or mixture, Hexane, 23° C., read-out: Solubility): < 130 µg/mL
- solubility ([1]; organic solvent or mixture, Isopropanol, 23° C., read-out: Solubility): < 140 µg/mL
- solubility ([1]; organic solvent or mixture, PEG 400, 23° C., read-out: Solubility): 300 to 430 µg/mL (≈ 757 to 1080 µM)
- solubility ([1]; organic solvent or mixture, THF, 23° C., read-out: Solubility): 320 to 400 µg/mL (≈ 807 to 1010 µM)
- solubility ([1]; organic solvent or mixture, Toluene, 23° C., read-out: Solubility): < 130 µg/mL
- solubility ([1]; organic solvent or mixture, ethanol, 23° C., read-out: Solubility): 170 to 190 µg/mL (≈ 429 to 479 µM)
- solubility ([1]; organic solvent or mixture, methanol, 23° C., read-out: Solubility): 210 to 310 µg/mL (≈ 530 to 782 µM)

SMILES: Cc1[nH]c(/C=C2\C(=O)Nc3ccc(F)cc32)c(C)c1C(=O)NCCN1CCCC1 [polymorph II, 5-[5-fluoro-2-oxo-1,2-dihydroindol-(3Z)-ylidenmethyl]-2,4-dimethyl-1H-pyrrole-3-carboxylic acid (2-pyrrolidin-1-ylethyl)-amide]
- Relative thermodynamic stability of the polymorphs [3]: thermodynamically more stable than polymorph I
- Color change of pellet side exposed to dissolution medium (solid-state conversion) [4]: No obvious color change
- IDR of polymorph II relative to apparent IDR of polymorph I ([4]; pH 2 buffer at 23° C.): about three times
- IDR (n = 3) [4]: 3.54 ± 0.15 mg/min/cm^2
- Color change of suspended particles [5]: no change of color
- Appearance of suspension [5]: orange-red needle-shaped crystals
